{"source": "patent US11590117B2", "about": "“Treatment of a hematologic malignancy with 2-(4-chlorophenyl)-n-((2-(2,6-dioxopiperidin-3-yl)-1-oxoisoindolin-5-yl)methyl)-2,2-difluoroacetamide” (priority 2016, dated 2023)", "test_in_all_cases": "CellTiter-Glo (CTG) cell proliferation assay, 72 hours", "assay_type_in_all_cases": "cell-based, human", "key": {"[1]": {"test_system": "Kasumi-1", "procedure": "(§1) Preparation of Solutions of Test Article: Compounds were plated into black 384-well plates (Corning Inc.) to a final DMSO volume of 0.1% assuming a maximal volume of 50 μL. A 10-point dose response starting at 10 μM with a 1:3 dilution was printed in duplicate by acoustic dispense using the EDC ATS-100 platform.\n(§2) Cell Proliferation Assays: The effect of Compound 1 on the proliferation/viability of the hematological cell lines (Table 1 Table, Table 2 and Table 3), THLE-2, or PBMCs was assessed after 72 hours incubation using CTG (Promega), according to manufacturer's instructions. Hematological cell lines were dispensed into compound plates by a Multidrop™ Combi Reagent Dispenser (Thermo Scientific, Waltham, Mass.) at a concentration of 0.1 to 0.3×10^6 cells per mL in a 50 μL total volume. THLE-2 cells were seeded out at 1000 cells per well in 50 μL volume and incubated for 72 hours. At 72 hours, 25 μL per well of CTG was dispensed by a Multidrop™ Combi Reagent Dispenser and adenosine triphosphate (ATP) release by viable cells was measured as relative luminescence units after 30 minutes using the Envision platform.\n(§3) Proliferation was assessed using the CellTitre-Glo® assay. Results for cultures incubated with Compound 1 were normalized to results for control cultures for each cell line. The IC50 for inhibition of cell growth by Compound 1 was determined for each cell line using ActivityBase software.\n(§4) Cultures of 11 different AML cell lines were incubated 72 hours with Compound 1 at concentrations of 0.5 nM to 10 μM. Proliferation was assessed using the CellTitre-Glo® assay. Results for cultures incubated with Compound 1 were normalized to results for control cultures for each cell line. Inhibition of cell growth was also determined in THLE-2 cells at Compound 1 concentrations of 0.1 nM to 100 μM and in PBMCs at Compound 1 concentrations of 0.5 nM to […]. The Compound 1 therapeutic window was calculated using area under the curve (AUC; Activity Area [Barretina et al, Nature (2012) 483603-607] measurements (in arbitrary units) as determined using GraphPad Prism software for plots of cell proliferation vs concentration and dividing the AUC for the immortalized (but nontumorigenic) human THLE-2 hepatocyte cell line or PBMCs by the AUC for the AML cell line."}, "[2]": {"test_system": "OCI-AML3", "conditions": "for IC50: liquid culture", "procedure": "as §1, §2, §3, §4"}, "[3]": {"test_system": "KG-1", "procedure": "as §1, §2, §3, §4"}, "[4]": {"test_system": "U-937", "procedure": "as §1, §2, §3, §4"}, "[5]": {"test_system": "OCI-AML2", "procedure": "as §1, §2, §3, §4"}, "[6]": {"test_system": "HL-60", "procedure": "as §1, §2, §3, §4"}, "[7]": {"test_system": "NB-4", "procedure": "as §1, §2, §3, §4"}, "[8]": {"test_system": "MV-4-11", "procedure": "as §1, §2, §3, §4"}, "[9]": {"conditions": "Kasumi-1, AUC PBMCs divided by AUC AML cell line"}, "[10]": {"conditions": "Kasumi-1, AUC THLE-2 divided by AUC AML cell line"}, "[11]": {"conditions": "OCI-AML3, AUC PBMCs divided by AUC AML cell line"}, "[12]": {"conditions": "OCI-AML3, AUC THLE-2 divided by AUC AML cell line"}, "[13]": {"conditions": "KG-1, AUC PBMCs divided by AUC AML cell line"}, "[14]": {"conditions": "KG-1, AUC THLE-2 divided by AUC AML cell line"}, "[15]": {"conditions": "U-937, AUC PBMCs divided by AUC AML cell line"}, "[16]": {"conditions": "U-937, AUC THLE-2 divided by AUC AML cell line"}, "[17]": {"conditions": "OCI-AML2, AUC PBMCs divided by AUC AML cell line"}, "[18]": {"conditions": "OCI-AML2, AUC THLE-2 divided by AUC AML cell line"}, "[19]": {"conditions": "HL-60, AUC PBMCs divided by AUC AML cell line"}, "[20]": {"conditions": "HL-60, AUC THLE-2 divided by AUC AML cell line"}, "[21]": {"conditions": "NB-4, AUC PBMCs divided by AUC AML cell line"}, "[22]": {"conditions": "NB-4, AUC THLE-2 divided by AUC AML cell line"}, "[23]": {"conditions": "MV-4-11, AUC PBMCs divided by AUC AML cell line"}, "[24]": {"conditions": "MV-4-11, AUC THLE-2 divided by AUC AML cell line"}}, "note": "Like-named read-outs stand apart in the source and are kept apart here.", "data": [{"compound": "O=C1CCC(N2Cc3cc(CNC(=O)C(F)(F)c4ccc(Cl)cc4)ccc3C2=O)C(=O)N1", "note": "(stereo not shown) [Compound 1, 2-(4-chlorophenyl)-N-((2-(2,6-dioxopiperidin-3-yl)-1-oxoisoindolin-5-yl)methyl)-2,2-difluoroacetamide]", "values": [{"measurement": "IC50", "setting": "[1]; Homo sapiens, Kasumi 1, 72 h, read-out: Proliferation IC50 (mean ± SD)", "result": "21 ± 13", "unit": "nM"}, {"measurement": "Therapeutic Window Method 1 As Compared with PBMCs", "setting": "[1]; [9]", "result": 6.6}, {"measurement": "Therapeutic Window Method 2 As Compared with PBMCs", "setting": "[1]; [9]", "result": 3.8}, {"measurement": "Therapeutic Window Method 1 As Compared with THLE-2 Cells", "setting": "[1]; [10]", "result": 10}, {"measurement": "Therapeutic Window Method 2 As Compared with THLE-2 Cells", "setting": "[1]; [10]", "result": 14.5}, {"measurement": "AUC", "setting": "[1]; Kasumi-1, Activity Area of proliferation vs concentration, 72 hours, 0.5 nM to 10 μM", "result": 37.9, "unit": "arbitrary units"}, {"measurement": "IC50", "setting": "[2]; Homo sapiens, OCI-AML-3, 72 h, read-out: Proliferation IC50 (mean ± SD), OCI-AML3, 72 hours", "result": 3000, "unit": "nM"}, {"measurement": "Therapeutic Window Method 1 As Compared with PBMCs", "setting": "[2]; [11]", "result": 0.45}, {"measurement": "Therapeutic Window Method 2 As Compared with PBMCs", "setting": "[2]; [11]", "result": 0.3}, {"measurement": "Therapeutic Window Method 1 As Compared with THLE-2 Cells", "setting": "[2]; [12]", "result": 0.70}, {"measurement": "Therapeutic Window Method 2 As Compared with THLE-2 Cells", "setting": "[2]; [12]", "result": 1.0}, {"measurement": "AUC", "setting": "[2]; OCI-AML3, Activity Area of proliferation vs concentration, 72 hours, 0.5 nM to 10 μM", "result": 563.0, "unit": "arbitrary units"}, {"measurement": "IC50", "setting": "[2]; read-out: Proliferation IC50 (mean ± SD), OCI-AML3, 72 hours", "result": "3400 ± 3330", "unit": "nM"}, {"measurement": "IC50", "setting": "[3]; Homo sapiens, KG-1, 72 h, read-out: Proliferation IC50 (mean ± SD)", "result": "15 ± 6", "unit": "nM"}, {"measurement": "Therapeutic Window Method 1 As Compared with PBMCs", "setting": "[3]; [13]", "result": 3.8}, {"measurement": "Therapeutic Window Method 2 As Compared with PBMCs", "setting": "[3]; [13]", "result": 2.2}, {"measurement": "Therapeutic Window Method 1 As Compared with THLE-2 Cells", "setting": "[3]; [14]", "result": 6.0}, {"measurement": "Therapeutic Window Method 2 As Compared with THLE-2 Cells", "setting": "[3]; [14]", "result": 8.3}, {"measurement": "AUC", "setting": "[3]; KG-1, Activity Area of proliferation vs concentration, 72 hours, 0.5 nM to 10 μM", "result": 65.8, "unit": "arbitrary units"}, {"measurement": "IC50", "setting": "[4]; Homo sapiens, U-937, 72 h, read-out: Proliferation IC50 (mean ± SD)", "result": "74 ± 25", "unit": "nM"}, {"measurement": "Therapeutic Window Method 1 As Compared with PBMCs", "setting": "[4]; [15]", "result": 6.3}, {"measurement": "Therapeutic Window Method 2 As Compared with PBMCs", "setting": "[4]; [15]", "result": 3.6}, {"measurement": "Therapeutic Window Method 1 As Compared with THLE-2 Cells", "setting": "[4]; [16]", "result": 9.8}, {"measurement": "Therapeutic Window Method 2 As Compared with THLE-2 Cells", "setting": "[4]; [16]", "result": 13.7}, {"measurement": "AUC", "setting": "[4]; U-937, Activity Area of proliferation vs concentration, 72 hours, 0.5 nM to 10 μM", "result": 40.0, "unit": "arbitrary units"}, {"measurement": "IC50", "setting": "[5]; Homo sapiens, OCI-AML2, 72 h, read-out: Proliferation IC50 (mean ± SD)", "result": "57 ± 21", "unit": "nM"}, {"measurement": "Therapeutic Window Method 1 As Compared with PBMCs", "setting": "[5]; [17]", "result": 14}, {"measurement": "Therapeutic Window Method 2 As Compared with PBMCs", "setting": "[5]; [17]", "result": 8.1}, {"measurement": "Therapeutic Window Method 1 As Compared with THLE-2 Cells", "setting": "[5]; [18]", "result": 22}, {"measurement": "Therapeutic Window Method 2 As Compared with THLE-2 Cells", "setting": "[5]; [18]", "result": 30.7}, {"measurement": "AUC", "setting": "[5]; OCI-AML2, Activity Area of proliferation vs concentration, 72 hours, 0.5 nM to 10 μM", "result": 17.9, "unit": "arbitrary units"}, {"measurement": "Therapeutic Window Method 1 As Compared with PBMCs", "setting": "[6]; [19]", "result": 11}, {"measurement": "Therapeutic Window Method 2 As Compared with PBMCs", "setting": "[6]; [19]", "result": 6.1}, {"measurement": "Therapeutic Window Method 1 As Compared with THLE-2 Cells", "setting": "[6]; [20]", "result": 17}, {"measurement": "Therapeutic Window Method 2 As Compared with THLE-2 Cells", "setting": "[6]; [20]", "result": 23.2}, {"measurement": "AUC", "setting": "[6]; HL-60, Activity Area of proliferation vs concentration, 72 hours, 0.5 nM to 10 μM", "result": 23.7, "unit": "arbitrary units"}, {"measurement": "IC50", "setting": "[6]; Homo sapiens, HL-60, 72 h, read-out: Proliferation IC50 (mean ± SD)", "result": "20 ± 10", "unit": "nM"}, {"measurement": "IC50", "setting": "[7]; Homo sapiens, NB-4, 72 h, read-out: Proliferation IC50 (mean ± SD)", "result": "17 ± 5", "unit": "nM"}, {"measurement": "Therapeutic Window Method 1 As Compared with PBMCs", "setting": "[7]; [21]", "result": 17}, {"measurement": "Therapeutic Window Method 2 As Compared with PBMCs", "setting": "[7]; [21]", "result": 10.1}, {"measurement": "Therapeutic Window Method 1 As Compared with THLE-2 Cells", "setting": "[7]; [22]", "result": 27}, {"measurement": "Therapeutic Window Method 2 As Compared with THLE-2 Cells", "setting": "[7]; [22]", "result": 38.1}, {"measurement": "AUC", "setting": "[7]; NB-4, Activity Area of proliferation vs concentration, 72 hours, 0.5 nM to 10 μM", "result": 14.4, "unit": "arbitrary units"}, {"measurement": "IC50", "setting": "[8]; Homo sapiens, MV4-11, 72 h, read-out: Proliferation IC50 (mean ± SD)", "result": "29 ± 10", "unit": "nM"}, {"measurement": "Therapeutic Window Method 1 As Compared with PBMCs", "setting": "[8]; [23]", "result": 12}, {"measurement": "Therapeutic Window Method 2 As Compared with PBMCs", "setting": "[8]; [23]", "result": 7.1}, {"measurement": "Therapeutic Window Method 1 As Compared with THLE-2 Cells", "setting": "[8]; [24]", "result": 19}, {"measurement": "Therapeutic Window Method 2 As Compared with THLE-2 Cells", "setting": "[8]; [24]", "result": 26.8}, {"measurement": "AUC", "setting": "[8]; MV-4-11, Activity Area of proliferation vs concentration, 72 hours, 0.5 nM to 10 μM", "result": 20.5, "unit": "arbitrary units"}]}]}
